Experimental data: patent US20140155589A1 (priority 2011, published 2014)
Where two headings read alike, the source gives them in different places.

System: Pseudomonas aeruginosa (PA 01 strain)
Details: for Amount of pyocyanine produced per viable bacterial count Relative value (%): relative to control without compound; for Viable bacterial count: shake culture 37° C. 48 hours; for viable bacterial count compared with control: summary of Table 12; for amount of pyocyanine produced per viable bacterial count compared with control: summary of Table 13
[1] = Concentration of compound added 10 mM
[2] = Concentration of compound added 20 mM
[3] = Concentration of compound added 25 mM

Compound | Amount of pyocyanine produced per viable bacterial count Relative value (%) [1] | Viable bacterial count [1] | Amount of pyocyanine produced per viable bacterial count Relative value (%) [2] | Viable bacterial count [2] | Amount of pyocyanine produced per viable bacterial count Relative value (%) [3] | Viable bacterial count [3] | viable bacterial count compared with control | amount of pyocyanine produced per viable bacterial count compared with control
C=CC(=O)O [Acrylic acid] | 250.1% | 1.09e+09 mL⁻¹ | 201.8% | 9.4e+08 mL⁻¹ | 233.1% | 8.4e+08 mL⁻¹ | almost no difference | larger than that in the control
O=P(O)(O)O [Phosphoric acid] | 118% | 1.6e+09 mL⁻¹ | 105.8% | 1.56e+09 mL⁻¹ | 107.6% | 1.49e+09 mL⁻¹ | almost no difference | not so different
O=P(O)(O)OP(=O)(O)OP(=O)(O)O [Triphosphoric acid] | 40.3% | 1.5e+09 mL⁻¹ | 11.5% | 1.5e+09 mL⁻¹ | 5.4% | 1.52e+09 mL⁻¹ | almost no difference | significantly lower
